From patent US4316904A, “Indolopyrone tetrazoles and carboxamidotetrazoles having antiallergic activity” (priority 1979, dated 1982)

Tested on: Reaginic Passive Cutaneous Anaphylaxis (PCA)
Assay: Rat Reaginic Passive Cutaneous Anaphylaxis (PCA)
Type: in vivo
Settings: for inhibition in vivo at 5 mg/kg / inhibition in vivo at 1 mg/kg: ip, read-out: percent inhibition (PCA test); for inhibition (PCA test), oral: orally
Protocol: The compounds of the invention are new chemical substances of value as pharmacological agents which prevent the allergic response in mammals by inhibition of the release of such allergic mediators, as histamine. The assay by which this utility was established is carried out as follows.
Rat Reaginic Passive Cutaneous Anaphylaxis (PCA)
The PCA test (D. J. Herzig, P. R. Schumann, E. J. Kusner, L. Robichaud, R. E. Giles, B. Dubnick, M. von Strandtmann, S. Klutchko, M. Cohen, and J. Shavel, Jr., "Immunopharmacology", M. E. Rosenthale and H. C. Mansmann, Eds., Spectrum Publications, Inc., New York, N.Y., 1975, pp. 103-124) involved immunization of rats with 1 mg of ovalbumin intramuscularly and approximately 10^10 B. pertussis organisms as pertussis vaccine, intraperitoneally. Fourteen days later, the rats were bled and the serum was prepared. Suitable dilutions of antiserum were injected intradermally at various sites on the back of rats 48 h before an intravenous injection of 1 mg of ovalbumin in 1 ml of physiological saline and 0.25% Evans Blue. Thirty minutes later the animals were killed in ether, the dorsal skin was reflected, and the mean orthogonal diameter of the wheal was measured. For oral or intraperitoneal dosing, the drugs were suspended in 1% gum tragacanth in physiological saline and given 10-15 min before intravenous antigen challenge. For intravenous dosing, the compounds were dissolved in the saline/ovalbumin/Evans Blue solution and given with the antigen. If necessary, the compounds were first dissolved in a slight molar excess of sodium bicarbonate and then diluted into the antigen solution. Groups of five animals were used for all dose levels and control groups.
To quantitate the PCA test, the mean diameter of each wheal spot was graphed as a function of the relative antiserum concentration. The line, fitted by the least-squares equation, was extrapolated to the value at "zero" antiserum concentration (base value). The following equation was then used to calculate the percent inhibition: [formula]
The statistical significance of the results was determined by Student's t test (p≤0.05). An inhibition of 15% was significant. The test results obtained for the compounds of the invention as well as for the corresponding acids (U.S. Pat. No. 4,028,383) are given as percent inhibition in the following table.

[1] = 5 mg/kg, 10-15 min before intravenous antigen challenge
[2] = 10-15 min before intravenous antigen challenge

Cn1c2c([N+](=O)[O-])cc([N+](=O)[O-])cc2c2oc(C(=O)O)cc(=O)c21 [6,8-di-NO2 /CH3 A, 4,5-Dihydro-5-methyl-6,8-dinitro-4-oxopyrano[3,2-b]indole-2-carboxylic acid, reference compound]
inhibition in vivo at 5 mg/kg [1]: 0%

Cn1c2c([N+](=O)[O-])cc([N+](=O)[O-])cc2c2oc(C(=O)Nc3nnn[nH]3)cc(=O)c21 [6,8-di-NO2 /CH3 C, 4,5-Dihydro-5-methyl-6,8-dinitro-4-oxo-N-1H-tetrazol-5-ylpyrano[3,2-b]indole-2-carboxamide]
inhibition in vivo at 5 mg/kg [1]: 48%

Cc1ccc2c(c1)c1oc(C(=O)O)cc(=O)c1n2C [8-CH3 /CH3 A, 4,5-dihydro-5,8-dimethyl-4-oxopyrano[3,2-b]indole-2-carboxylic acid, reference compound]
inhibition in vivo at 1 mg/kg [2]: 18%

Cc1ccc2c(c1)c1oc(C(=O)Nc3nnn[nH]3)cc(=O)c1n2C [8-CH3 /CH3 C, 4,5-Dihydro-5,8-dimethyl-4-oxo-N-1H-tetrazol-5-ylpyrano[3,2-b]indole-2-carboxamide]
inhibition in vivo at 1 mg/kg [2]: 33% | inhibition in vivo at 5 mg/kg [1]: 100%

Cc1ccc2c(c1)c1oc(-c3nnn[nH]3)cc(=O)c1n2C [8-CH3 /CH3 T, 5,8-Dimethyl-2-(1H-tetrazol-5-yl)pyrano[3,2-b]indol-4(5H)-one]
inhibition in vivo at 1 mg/kg [2]: 25% | inhibition in vivo at 5 mg/kg [1]: 100% | inhibition (PCA test), oral (5 mg/kg): 56%

Cn1c2ccc(Cl)cc2c2oc(C(=O)O)cc(=O)c21 [8-Cl/CH3 A, 8-chloro-4,5-dihydro-5-methyl-4-oxopyrano[3,2-b]indole-2-carboxylic acid, reference compound]
inhibition in vivo at 5 mg/kg [1]: 23%

Cn1c2ccc(Cl)cc2c2oc(C(=O)Nc3nnn[nH]3)cc(=O)c21 [8-Cl/CH3 C, 8-Chloro-4,5-dihydro-5-methyl-4-oxo-N-1H-tetrazol-5-ylpyrano[3,2-b]indole-2-carboxamide]
inhibition in vivo at 1 mg/kg [2]: 38% | inhibition in vivo at 5 mg/kg [1]: 100%

Cn1c2ccc(Cl)cc2c2oc(-c3nnn[nH]3)cc(=O)c21 [8-Cl/CH3 T, 8-Chloro-5-methyl-2-(1H-tetrazol-5-yl)pyrano[3,2-b]indol-4(5H)-one]
inhibition in vivo at 1 mg/kg [2]: 46% | inhibition in vivo at 5 mg/kg [1]: 100% | inhibition (PCA test), oral (5 mg/kg): 33%

Cn1c2ccc([N+](=O)[O-])cc2c2oc(C(=O)O)cc(=O)c21 [8-NO2 /CH3 A, 4,5-Dihydro-5-methyl-8-nitro-4-oxopyrano-[3,2-b]indole-2-carboxylic acid, reference compound]
inhibition in vivo at 1 mg/kg [2]: 1% | inhibition in vivo at 5 mg/kg [1]: 100%

Cn1c2ccc([N+](=O)[O-])cc2c2oc(C(=O)Nc3nnn[nH]3)cc(=O)c21 [8-NO2 /CH3 C, 4,5-Dihydro-5-methyl-8-nitro-4-oxo-N-1H-tetrazol-5-ylpyrano[3,2-b]indole-2-carboxamide]
inhibition in vivo at 1 mg/kg [2]: 42% | inhibition in vivo at 5 mg/kg [1]: 100%

O=C(O)c1cc(=O)c2c(o1)c1ccccc1n2-c1ccccc1 [H/.phi. A, reference compound]
inhibition in vivo at 1 mg/kg [2]: 13%

O=C(Nc1nn[nH]n1)c1cc(=O)c2c(o1)c1ccccc1n2-c1ccccc1 [H/.phi. C]
percent inhibition (PCA test) (i.p., 5 mg/kg, 10-15 min before intravenous antigen challenge): Inac.

O=c1cc(-c2nnn[nH]2)oc2c3ccccc3n(-c3ccccc3)c12 [H/.phi. T, 5-Phenyl-2(1H-tetrazol-5-yl)pyrano[3,2-b]indol-4(5H)-one]
inhibition (PCA test), intravenous (intravenously, 0.1 mg/kg, given with the antigen): 28% | inhibition in vivo at 1 mg/kg [2]: 61% | inhibition in vivo at 5 mg/kg [1]: 100% | inhibition (PCA test), oral (2 mg/kg): 32%

CCn1c2ccccc2c2oc(C(=O)O)cc(=O)c21 [H/C2 H5 A, 5-ethyl-4,5-dihydro-4-oxopyrano[3,2-b]indole-2-carboxylic acid, reference compound]
inhibition in vivo at 1 mg/kg [2]: 0%

CCn1c2ccccc2c2oc(C(=O)Nc3nnn[nH]3)cc(=O)c21 [H/C2 H5 C, 5-Ethyl-4,5-dihydro-4-oxo-N-1H-tetrazol-5-ylpyrano[3,2-b]indole-2-carboxamide]
inhibition in vivo at 1 mg/kg [2]: 12% | inhibition in vivo at 5 mg/kg [1]: 100%

CCn1c2ccccc2c2oc(-c3nnn[nH]3)cc(=O)c21 [H/C2 H5 T, 5-Ethyl-2-(1H-tetrazol-5-yl)pyrano[3,2-b]indol-4(5H)-one]
inhibition in vivo at 1 mg/kg [2]: 100% | inhibition in vivo at 5 mg/kg [1]: 100% | inhibition (PCA test), oral (5 mg/kg): 70%

Cn1c2ccccc2c2oc(C(=O)O)cc(=O)c21 [H/CH3 A, 4,5-dihydro-5-methyl-4-oxopyrano[3,2-b]indole-2-carboxylic acid, reference compound]
inhibition in vivo at 1 mg/kg [2]: 30% | inhibition in vivo at 5 mg/kg [1]: 100%

Cn1c2ccccc2c2oc(C(=O)Nc3nnn[nH]3)cc(=O)c21 [H/CH3 C, 4,5-Dihydro-5-methyl-4-oxo-N-1H-tetrazol-5-ylpyrano[3,2-b]indole-2-carboxamide]
inhibition in vivo at 1 mg/kg [2]: 28% | inhibition in vivo at 5 mg/kg [1]: 100%

Cn1c2ccccc2c2oc(-c3nnn[nH]3)cc(=O)c21 [H/CH3 T, 5-Methyl-2(1H-tetrazol-5-yl)pyrano[3,2-b]indol-4(5H)-one]
inhibition in vivo at 1 mg/kg [2]: 87% | inhibition in vivo at 5 mg/kg [1]: 100% | inhibition (PCA test), oral (2 mg/kg): 12% | inhibition (PCA test), oral (5 mg/kg): 39%
